# In US20040198819A1, “Biological response modifier composition and uses thereof” (priority 2001, published 2004):
# Legend:
# [1] = system: peritoneal macrophages; assay: Nitric oxide release by mouse peritoneal macrophages (Greiss reagent); assay type: cell-based, C57BL/6 mice; details: in vitro
# Procedure: (§1) Peritoneal macrophages are harvested from C57BL/6 mice 72 hours after intraperitoneal injection of 1.5 ml of 4% protease peptone. The macrophages are then stimulated in vitro with medium alone, 50 ng LPS, or BRM. Measurements of the stimulation are performed with respect to TNF (by ELISA) and NO (by spectrophotometric assay using the Greiss reagent) levels in duplicate experiments.
# In vitro synergy of BRM with LPS for nitric oxide (NO) is addressed in the same procedure as above, except NO is determined in the supernatant of the treated macrophages. As above, the assay for NO is spectrophotometric and uses a Greiss reagent.
# In vitro synergy of BRM with IFN-γ for NO release is studied, using the same peritoneal mouse macrophages derived from C57BL/6 mice treated as above.
# [2] = system: peritoneal macrophages; assay: TNF-α release by mouse peritoneal macrophages (ELISA); assay type: cell-based, C57BL/6 mice; details: in vitro culture
# Procedure: as §1
# In vitro synergy of BRM with IFN-γ for TNF-α release is studied using the same peritoneal mouse macrophages derived from C57BL/6 mice treated as above. […] The same macrophages stimulated with either LPS or IFN-γ release almost 3000 pg/ml of TNF-α.
substance,measurement,setting,value
"IFN-γ: interferon gamma, conventional macrophage activator","release of NO by macrophages, stimulus alone",[1],enhanced NO production
same,release of TNF-α,[2],~3000 pg/mL
